Measured values: article PMC7728077, “Double-Headed Cationic Lipopeptides: An Emerging Class of Antimicrobials” (International Journal of Molecular Sciences, 2020)
Values after ≈ are worked out from the molar mass of the structure shown. Square brackets hold non-standard residues; d marks the D form. Peptide text beside a SMILES is read from it. * marks the point of attachment. Palmitoyl = CCCCCCCCCCCCCCCC(=O)*; Orn = NCCC[C@H](N)C(=O)O; Dab = NCC[C@H](N)C(=O)O; Dap = NC[C@H](N)C(=O)O

Key:
[1] = tested on: HT-29 human colorectal adenocarcinoma; format: cell-based
Description: (§1) In the case of evaluation of cytotoxicity towards different types of the cancer cell lines (A375, A549, HCT-116, HT-29, and LNCaP, respective cells were seeded in 96-well plates (4500 cell/well) in the RPMI-1640 medium supplemented with 5% FBS without antibiotics and incubated for 24 h before stimulation with the lipopeptides. The next day, the cells were exposed to the effect of the serially diluted compounds added at concentrations ranging from 1 to 25 µg/mL for a period of 48 h. After the treatment, cells viability was evaluated by means of MTT assays, according to standard protocol, as just described. The experiment was repeated three times for each cell line.
(§2) Determination of the half-maximum inhibitory concentrations (IC50) was done using GraphPad Prism 5 software (San Diego, CA, USA) based on the dose-response curves. The logarithm of the different concentrations of compounds was plotted against the percentage of inhibition in cell viability as compared with control probes, treated as 100%.

[2] = tested on: HCT-116 human colorectal carcinoma; format: cell-based
Description: as §1, §2

[3] = tested on: LNCaP human prostate carcinoma; format: cell-based
Description: as §1, §2

[4] = tested on: A375 human malignant melanoma cell line; format: cell-based
Description: as §1, §2

[5] = tested on: A549 human epithelial lung carcinoma; format: cell-based
Description: as §1, §2

[6] = tested on: Candida albicans ATCC 10231; format: cell-based; conditions: ATCC 10231, 18 h
Description: (§3) Fmoc-Lys(Boc)-OH and the coupling reagents were purchased from GL Biochem (Shanghai, China). Palmitoyl Fmoc-amino acids: Fmoc-Lys(C16)-OH, Fmoc-Orn(C16)-OH, Fmoc-Dab(C16)-OH, and Fmoc-Dap(C16)-OH were acquired from Iris Biotech GmbH (Marktredwitz, Germany). The resin and solvents were purchases from Rapp Polymere (Tübingen, Germany), Merck (Darmstadt, Germany), and Avantor Performance Materials (Gliwice, Poland), respectively. The phospholipids, 1,2-dipalmitoyl-sn-glycero-3-phosphocholine (DPPC), 1,2-dipalmitoyl-sn-glycero-3-[phospho-rac-(1-glycerol)] (DPPG), 1-palmitoyl-2-oleoyl-glycero-3-phosphocholine (POPC) and 1-palmitoyl-2-oleoyl-sn-glycero-3-[phospho-rac-(1-glycerol)] (POPG), were purchased from Avanti Polar Lipids (Alabaster, AL, USA). LPS E. coli 055:B5 and phosphate buffered saline (PBS) were from Sigma-Aldrich (Steinheim, Germany). The Mueller Hinton broth was bought from BIOCORP (Warsaw, Poland) and the RPMI-1640 medium from Sigma-Aldrich (Steinheim, Germany). LIVE/DEAD™ BacLight™ Bacterial Viability Kit was obtained from Thermo Fisher Scientific (Waltham, MA, USA). Bacterial strains (Escherichia coli ATCC 25922, Pseudomonas aeruginosa ATCC 9027, Staphylococcus aureus ATCC 25923, Staphylococcus epidermidis ATCC 1922) and the fungal strain (Candida albicans ATCC 10231) were obtained from the Polish Collection of Microorganisms, Polish Academy of Science, Institute of Immunology and Experimental Therapy, Wroclaw, Poland.
(§4) Antimicrobial activity of the lipopeptides was determined according to the broth microdilution guidelines recommended by the Clinical and Laboratory Standards Institute (CLSI). Minimum inhibitory concentrations (MICs) were assumed as the lowest concentration of the peptide solution, at which the visible growth of microorganisms was inhibited. MIC values of lipopeptides against bacteria were evaluated in the Mueller–Hinton broth and against fungus in the RPMI-1640 medium. Initial inoculums of bacteria and fungus (with concentrations of 5 × 10^5 CFU/mL and 2 × 10^3 CFU/mL, respectively) were exposed to increasing concentrations of lipopeptides solutions over the range of 1–512 µg/mL. […] The 96-well plates filled with appropriate inoculums and the tested compounds were incubated for 18 h at 37 °C. Presented values are the mean of the results obtained in three independent experiments.

[7] = tested on: Pseudomonas aeruginosa ATCC 9027; format: cell-based; conditions: ATCC 9027, 18 h
Description: as §3, §4

[8] = tested on: Staphylococcus epidermidis ATCC 1922; format: cell-based; conditions: ATCC 1922, 18 h
Description: as §3, §4

[9] = tested on: Escherichia coli ATCC 25922; format: cell-based; conditions: ATCC 25922, 18 h
Description: as §3, §4

[10] = tested on: Staphylococcus aureus ATCC 25923; format: cell-based; conditions: ATCC 25923, 18 h
Description: as §3, §4

[11] = tested on: MCF-7 breast cancer cell line; format: cell-based, human
[12] = tested on: 46BR.1N human skin fibroblasts cell line; format: cell-based
Description: (§5) Cytotoxicity was determined towards immortalized human HaCaT keratinocytes (DKFZ, Heidelberg, Germany), transformed human fibroblast cell line 46BR.1N (ECACC), as well as the human melanoma (A375), human lung cancer (A549), human colon cancer (HCT-116), human colon adenocarcinoma (HT-29), and human prostate cancer (LNCaP) cell lines. Keratinocytes and fibroblast cell lines were maintained in a humidified atmosphere with 5% CO2 at 37 °C in a Dulbecco’s modified Eagle’s medium (DMEM) (Sigma-Aldrich, Steinheim, Germany), which contained 4500 mg/L of glucose, 584 mg/L of L-glutamine, sodium pyruvate, and sodium bicarbonate. Additionally, the medium was supplemented with 10% of fetal bovine serum (FBS) (Sigma-Aldrich, Steinheim, Germany), 100 U/mL of penicillin, and 100 µg/mL of streptomycin (Sigma-Aldrich, Steinheim, Germany). The cells were grown in culture dishes (BD, Franklin Lakes, NJ, USA) and the medium was changed every 2 days. Afterwards, the fibroblasts and keratinocytes were harvested using a standard trypsin-EDTA solution, centrifuged, suspended in a medium supplemented with 10% FBS and seeded at a density of 5500–6000 cells per well into 96-well plates. After 24 h, the medium was exchanged with a serum- and antibiotic-free DMEM. The next day, serially diluted solutions of the lipopeptides prepared in a fresh FBS- and antibiotic-free medium were added to the wells. The potential cytotoxic effect of the compounds was analyzed over the concentration range of 1–25 µg/mL. After addition of the lipopeptides, cells were incubated for the next 24 h. At the end of the experiment, the cells were treated with 20 µL of MTT (5 mg/mL in PBS). After 3 h at 37 °C under 5% CO2, the medium was discarded and replaced by 6 mM HCl in isopropanol. As soon as the purple crystals of formazan were completely solubilized, absorbance was read at 570 nm with a plate reader. The optical density of the wells without the tested compounds were regarded as the positive control. The MTT assay was performed in triplicate for each cell line.
as §2

[13] = tested on: HaCaT human keratinocyte cell line; format: cell-based
Description: as §5, §2

[14] = Analytical RP-HPLC retention time as measure of hydrophobicity; format: physicochemical; conditions: Jupiter 4 µ Proteo 90 Å 250 x 4.60 mm, linear gradient 15-90% B in A in 30 min, 1 ml/min, A 0.1% aqueous TFA, B 80% acetonitrile in water with 0.1% TFA
Description: The lipopeptides were purified in a Waters RP-HPLC preparative system (Jupiter 4 µ Proteo column, 90 Å, 250 × 10 mm) with the linear gradient of solution B in A from 30% to 60% (A, 0.1% solution of TFA in water and B, 80% solution of ACN in water containing 0.1% of TFA) in 40 min with a flow rate of 5 mL/min. Final purity of the analogues (at least 97%) was determined using an analytical RP-HPLC Shimadzu system (Jupiter 4 µ Proteo column, 90 Å, 250 × 4.60 mm) with the linear gradient of solution B in A from 15% to 90% in 30 min with a flow rate of 1 mL/min. Identity of lipopeptides was confirmed by MALDI-TOF mass spectrometry. Analytical data of the synthesized analogues are presented in Table S1 (Supplementary Materials). ^a linear gradient 15-90% of B in A for 30 min, flow rate 1 ml/min, RP-HPLC Shimadzu system, column: Jupiter 4 µ Proteo, 90 Å, 250 x 4.60 mm; A – 0.1% aqueous TFA solution, B – 80% solution of acetonitrile in water with 0.1% of TFA; ^b molecular masses were determined using MALDI-TOF mass spectrometer.

[15] = literature value used for comparison; cited from earlier work
Description: As expected, the critical aggregation concentration (CAC) values increased in the homologue series, i.e., Lys, Orn, Dab, and Dap, with a linear relationship of log CAC vs. number of methylene groups in the side chain of palmitoylated residue (Figure S3, Supplementary Materials). […] The modification of the acyl chain position separated the posi ...

Row | Molecule | IC50, HT-29 (48h) [1] | IC50, HCT-116 (48h) [2] | IC50, LNCaP (48h) [3] | IC50, A375 (48h) [4] | IC50, A549 (48h) [5] | MIC, C. albicans [6] | MIC, P. aeruginosa [7] | MIC, S. epidermidis [8] | MIC, E. coli [9] | MIC, S. aureus [10] | IC50, MCF-7 (48h) [11] | IC50, 46BR.1N (24h) [12] | IC50, HaCaT (24h) [13] | Retention time (used as measure of hydrophobicity) [14] | CAC of N-terminally palmitoylated peptide [15]
1 | CCCCCCCCCCCCCCCC(=O)NCC[C@H](NC(=O)[C@H](CCCCN)NC(=O)[C@@H](N)CCCCN)C(=O)N[C@@H](CCCCN)C(=O)N[C@@H](CCCCN)C(N)=O [KK(DabC16)KK-NH2] (H-KK[Dab](Palmitoyl)KK-NH2) | 20.75 ± 0.42 µg/mL (≈ 23.9 µM) | 16.74 ± 0.33 µg/mL (≈ 19.3 µM) | >25 µg/mL | >25 µg/mL | >25 µg/mL | 32 µg/mL (≈ 36.9 µM) | 32 µg/mL (≈ 36.9 µM) | 8 µg/mL (≈ 9.21 µM) | 8 µg/mL (≈ 9.21 µM) | 4 µg/mL (≈ 4.61 µM) | >25 µg/mL | 9.45 ± 2.13 µg/mL (≈ 10.9 µM) | 16.95 ± 1.43 µg/mL (≈ 19.5 µM) | – | –
2 | CCCCCCCCCCCCCCCC(=O)NC[C@H](NC(=O)[C@H](CCCCN)NC(=O)[C@@H](N)CCCCN)C(=O)N[C@@H](CCCCN)C(=O)N[C@@H](CCCCN)C(N)=O [KK(DapC16)KK-NH2] (H-KK[Dap](Palmitoyl)KK-NH2) | 24.68 ± 0.49 µg/mL (≈ 28.9 µM) | 23.05 ± 0.92 µg/mL (≈ 27 µM) | >25 µg/mL | >25 µg/mL | >25 µg/mL | 256 µg/mL (≈ 300 µM) | 32 µg/mL (≈ 37.5 µM) | 8 µg/mL (≈ 9.37 µM) | 8 µg/mL (≈ 9.37 µM) | 4 µg/mL (≈ 4.68 µM) | >25 µg/mL | 12.77 ± 1.32 µg/mL (≈ 14.9 µM) | – | – | –
3 | CCCCCCCCCCCCCCCC(=O)NC[C@H](NC(=O)[C@@H](N)CCCCN)C(=O)N[C@@H](CCCCN)C(N)=O [K(DapC16)K-NH2] (H-Lys-[Dap](Palmitoyl)-Lys-NH2) | 20.24 ± 0.81 µg/mL (≈ 33.9 µM) | 14.90 ± 0.30 µg/mL (≈ 24.9 µM) | 14.0 ± 0.41 µg/mL (≈ 23.4 µM) | 11.63 ± 0.26 µg/mL (≈ 19.5 µM) | >25 µg/mL | 16 µg/mL (≈ 26.8 µM) | 8 µg/mL (≈ 13.4 µM) | 4 µg/mL (≈ 6.69 µM) | 8 µg/mL (≈ 13.4 µM) | 8 µg/mL (≈ 13.4 µM) | 20.11 ± 2.51 µg/mL (≈ 33.6 µM) | 8.68 ± 1.00 µg/mL (≈ 14.5 µM) | 7.25 ± 2.18 µg/mL (≈ 12.1 µM) | – | –
4 | CCCCCCCCCCCCCCCC(=O)NCCC[C@H](NC(=O)[C@H](CCCCN)NC(=O)[C@@H](N)CCCCN)C(=O)N[C@@H](CCCCN)C(=O)N[C@@H](CCCCN)C(N)=O [KK(OC16)KK-NH2] (H-KK[Orn](Palmitoyl)KK-NH2) | 19.36 ± 0.58 µg/mL (≈ 21.9 µM) | 14.90 ± 0.75 µg/mL (≈ 16.9 µM) | >25 µg/mL | >25 µg/mL | >25 µg/mL | 32 µg/mL (≈ 36.3 µM) | 32 µg/mL (≈ 36.3 µM) | 4 µg/mL (≈ 4.53 µM) | 8 µg/mL (≈ 9.07 µM) | 8 µg/mL (≈ 9.07 µM) | >25 µg/mL | 8.21 ± 1.12 µg/mL (≈ 9.31 µM) | 16.65 ± 2.29 µg/mL (≈ 18.9 µM) | 21.328 min | –
5 | C16-KKK-NH2 [Peptide C16-KKK-NH2] | – | – | – | – | – | – | – | – | – | – | – | – | – | – | 4.8 mM
